The record followed here is patent publication US20200131669A1, “CYCLIC PEPTIDE COMPOUND HAVING HIGH MEMBRANE PERMEABILITY, AND LIBRARY CONTAINING SAME” (Chugai Seiyaku Kabushiki Kaisha, priority 2017, published 2020).

Starred links: 1 amine or outer side, 2 acyl side, 3 side chain; linkers in the order of their positions; H or OH if unused. Positions of bridges follow the written chain, without caps; N, C: chain ends. Non-standard residues stand in square brackets, D forms with d. Residues, ends and D or L forms follow the SMILES beside them. *: point of attachment. Glu(NHSO2Me) = CS(=O)(=O)NC(=O)CC[C@H](N)C(=O)O; Phe(4-CF3) = N[C@@H](Cc1ccc(C(F)(F)F)cc1)C(=O)O; 3Pal(6-NMe2) = CN(C)c1ccc(C[C@H](N)C(=O)O)cn1; NMePhe(3-Cl) = CN[C@@H](Cc1cccc(Cl)c1)C(=O)O; X16 = O=C(C1CCCCC1)[C@H](CC(=O)[*:2])N[*:1]; hPhe(3-Cl) = N[C@@H](CCc1cccc(Cl)c1)C(=O)O; NMeW = CN[C@@H](Cc1c[nH]c2ccccc12)C(=O)O; X5 = O=C(C(CCc1noc(=O)[nH]1)N[*:1])[*:2]; NMehPhe = CN[C@@H](CCc1ccccc1)C(=O)O; Gly(NCH2CH2Ph) = O=C(O)CNCCc1ccccc1; NMeF = CN[C@@H](Cc1ccccc1)C(=O)O; NMeGABA = CN(CCCC(=O)[*:2])[*:1]; hPhe = N[C@@H](CCc1ccccc1)C(=O)O; NMeD = CN[C@@H](CC(=O)O)C(=O)O; NMeL = CN[C@@H](CC(C)C)C(=O)O; NMeV = CN[C@H](C(=O)O)C(C)C; NMeAbu = CC[C@H](NC)C(=O)O; NMeS = CN[C@@H](CO)C(=O)O; NMeA = CN[C@@H](C)C(=O)O; Piperidide = C1CCN(*)CC1; Me2NCH2CH2 = CN(C)CC*; NBuGly = CCCCNCC(=O)O; Isopentyl = CC(C)CC*; Sar = CNCC(=O)O; tBu = CC(C)(C)*

One series is described as follows: Caco-2 membrane permeability, improved method as used in the following Examples (96-well, 20 to 24 h preincubation). Particulars: Caco-2, Caco-2. The series is classed as in vitro ADME. The procedure, abridged:
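Caco-2 monolayers were grown three weeks and preincubated 20–24 h at 37 °C with compound in DMEM+FaSSIF (1% DMSO) apically. The assay then used compound in FaSSIF/HBSS (1% DMSO, pH 6.0) apically and HBSS with 4% BSA (pH 7.4) basally. Basal samples were taken at 180 min for LC/MS, and Papp (cm/sec) was calculated.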
In general terms: Passage across Caco-2 layers is used to estimate intestinal permeability.
Consider `CC(C)C[C@@H]1NC(=O)[C@H](CC(C)C)N(C)C(=O)C[C@@H](C(=O)N2CCCCC2)NC(=O)[C@H](CC(C)C)N(C)C(=O)CN(C)C(=O)[C@H](CCC(=O)N(C)C)NC(=O)[C@H](CC(C)C)N(C)C(=O)[C@H](Cc2ccccc2)N(C)C(=O)[C@H](CC(C)C)NC(=O)[C@H](Cc2ccccc2)N(C)C(=O)[C@H](CC(C)C)N(C)C1=O` [pd439] ([NMeL]L[NMeL][NMeF]L[NMeF][NMeL]E(NMe2)[Sar][NMeL]D-Piperidide; lactam N-11), for which the Papp A→B worked out at 1 ×10⁻⁶ cm/s.

The same series, now with this note: human, Caco-2, Caco-2.
`CCCCN1CC(=O)N(C)[C@@H](CC(C)C)C(=O)N[C@@H](CCC(=O)NS(C)(=O)=O)C(=O)N(C)[C@@H](Cc2cccc(Cl)c2)C(=O)N(C)[C@@H](C(C)C)C(=O)N[C@H](C(=O)N2CCCCC2)CC(=O)N[C@H](CC(C)C)C(=O)N(C)[C@@H](Cc2cccc(Cl)c2)C(=O)N[C@@H](CC(C)C)C(=O)N(C)[C@@H](CC)C(=O)N[C@@H]([C@@H](C)O)C1=O` [pd61] ([dL][NMePhe(3-Cl)]L[NMeAbu]T[NBuGly][NMeL][Glu(NHSO2Me)][NMePhe(3-Cl)][NMeV]D-Piperidide; lactam N-11) returned a Papp A→B at 180 min below 0.094 ×10⁻⁶ cm/s.

`CC(C)C[C@@H]1NC(=O)[C@H](CC(C)C)N(C)C(=O)CN(C)C(=O)[C@H]([C@@H](C)O)NC(=O)[C@H](CC(C)C)N(C)C(=O)[C@H](CCc2cccc(Cl)c2)NC(=O)[C@H](C)N(C)C(=O)[C@@H](C(C)C)NC(=O)C[C@@H](C(=O)N2CCCCC2)NC(=O)[C@H](C(C)C)N(C)C(=O)[C@H](Cc2ccccc2)N(C)C1=O` [pd355] ([dV][NMeA][hPhe(3-Cl)][NMeL]T[Sar][NMeL]L[NMeF][NMeV]D-Piperidide; lactam N-11) came in with a Papp A→B at 180 min of 2.3 ×10⁻⁶ cm/s.

`CCCCN1CC(=O)N(C)[C@@H](CC(C)C)C(=O)N[C@@H](COC(C)(C)C)C(=O)N(C)[C@@H](Cc2ccccc2)C(=O)N(C)[C@@H](C(C)C)C(=O)N[C@H](C(=O)N2CCCCC2)CC(=O)N[C@H](C(C)C)C(=O)N(C)[C@@H](Cc2ccccc2)C(=O)N[C@@H](COCCN(C)C)C(=O)N(C)[C@@H](CC(C)C)C(=O)N[C@@H]([C@@H](C)O)C1=O` [pd53] ([dV][NMeF]S(Me2NCH2CH2)[NMeL]T[NBuGly][NMeL]S(tBu)[NMeF][NMeV]D-Piperidide; lactam N-11) showed a Papp A→B at 180 min of 0.14 ×10⁻⁶ cm/s.

In turn, `CC(C)C[C@@H]1NC(=O)[C@H](CC(C)C)N(C)C(=O)CCCN(C)C(=O)C[C@@H](C(=O)N2CCCCC2)NC(=O)[C@H](CC(C)C)N(C)C(=O)[C@H](CC(C)C)N(C)C(=O)[C@H]([C@@H](C)O)NC(=O)[C@H](CC(C)C)N(C)C(=O)[C@H](Cc2ccc(N(C)C)nc2)NC(=O)[C@H](Cc2ccccc2)N(C)C(=O)[C@H](CC(C)C)N(C)C1=O` [pd397] ([NMeGABA][NMeL]L[NMeL][NMeF][3Pal(6-NMe2)][NMeL]T[NMeL][NMeL]D-Piperidide; lactam N-11) yielded a Papp A→B at 180 min of 1.2 ×10⁻⁶ cm/s.

For `CC[C@H](C)[C@@H]1NC(=O)[C@H](CC(C)C)N(C)C(=O)[C@@H](C)NC(=O)C[C@@H](C(=O)N2CCCCC2)NC(=O)[C@H](CC)N(C)C(=O)[C@H](Cc2ccccc2)N(C)C(=O)[C@H](COC(C)(C)C)NC(=O)[C@H](CC(C)C)N(C)C(=O)[C@H](CC)N(C)C(=O)[C@H]([C@@H](C)O)NC(=O)CN(CCc2ccccc2)C1=O` [pd414] ([dA][NMeL]I[Gly(NCH2CH2Ph)]T[NMeAbu][NMeL]S(tBu)[NMeF][NMeAbu]D-Piperidide; lactam N-11), the Papp A→B at 180 min amounted to 1.6 ×10⁻⁶ cm/s.

Still in this series, the particulars now being: human, Caco-2, Caco-2 (cm/sec).
In turn, `CC(C)C[C@H]1C(=O)N(C)[C@@H](CC(C)C)C(=O)N(C)[C@@H](Cc2c[nH]c3ccccc23)C(=O)N[C@@H]([C@@H](C)O)C(=O)N(C)[C@@H](C)C(=O)N(C)[C@@H](CC(C)C)C(=O)N[C@H](C(=O)N2CCCCC2)CC(=O)N(C)[C@@H](C)C(=O)N(C)[C@@H](CC(C)C)C(=O)N(C)[C@@H](CC(C)C)C(=O)N[C@@H](C)C(=O)N1C` [pd105] ([NMeA][NMeL][NMeL]A[NMeL][NMeL][NMeW]T[NMeA][NMeL]D-Piperidide; lactam N-11) displayed a Papp A→B at 180 min of 0.28 ×10⁻⁶ cm/s.

Take `CC(C)C[C@@H]1NC(=O)[C@H](CC(C)C)N(C)C(=O)[C@H](C(C)C)NC(=O)C[C@@H](C(=O)N2CCCCC2)NC(=O)[C@H](CC(C)C)N(C)C(=O)[C@H](Cc2ccccc2)N(C)C(=O)[C@H]([C@@H](C)O)NC(=O)[C@H](Cc2ccc(C(F)(F)F)cc2)NC(=O)[C@H](C)N(C)C1=O` [pd145] (V[NMeL]L[NMeA][Phe(4-CF3)]T[NMeF][NMeL]D-Piperidide; lactam N-9): the Papp A→B at 180 min came to 1.2 ×10⁻⁶ cm/s.

With `CC(C)C[C@H]1C(=O)N(C)[C@@H](CCc2ccccc2)C(=O)N[C@@H](COC(C)(C)C)C(=O)N(C)[C@@H](C)C(=O)N[C@H](C(=O)N2CCCCC2)CC(=O)N(C)[C@@H](C)C(=O)N(C)[C@@H](Cc2ccccc2)C(=O)N[C@@H](CCc2ccccc2)C(=O)N(C)[C@@H](CC(C)C)C(=O)N[C@@H]([C@@H](C)O)C(=O)N(C)CC(=O)N1C` [pd184] ([NMeA][NMeF][hPhe][NMeL]T[Sar][NMeL][NMehPhe]S(tBu)[NMeA]D-Piperidide; lactam N-11), the Papp A→B at 180 min came out at 1.2 ×10⁻⁶ cm/s.

In turn, `CC(C)C[C@@H]1NC(=O)[C@H](Cc2c[nH]c3ccccc23)N(C)C(=O)[C@@H](C(C)C)NC(=O)C[C@@H](C(=O)N2CCCCC2)NC(=O)[C@H](CC(C)C)N(C)C(=O)[C@H](CC(C)C)N(C)C(=O)[C@H](COC(C)(C)C)NC(=O)[C@H](CC(C)C)N(C)C(=O)CN(C)C(=O)[C@H]([C@@H](C)O)NC(=O)[C@H](CC(C)C)N(C)C1=O` [pd106] ([dV][NMeW]L[NMeL]T[Sar][NMeL]S(tBu)[NMeL][NMeL]D-Piperidide; lactam N-11) came in with a Papp A→B at 180 min of 0.36 ×10⁻⁶ cm/s.

Compound `CC(C)C[C@H]1C(=O)N(C)CC(=O)N[C@@H](Cc2ccccc2)C(=O)N[C@@H](Cc2ccc(C(F)(F)F)cc2)C(=O)N(C)[C@@H](CC(C)C)C(=O)N(C)[C@@H](CC(C)C)C(=O)N[C@@H]([C@@H](C)O)C(=O)N(C)[C@H](C(=O)N2CCCCC2)CC(=O)N1C` [pd150] ([NMeL][Sar]F[Phe(4-CF3)][NMeL][NMeL]T[NMeD]-Piperidide; lactam N-8) registered a Papp A→B at 180 min of 1.7 ×10⁻⁶ cm/s.

`CC[C@H](C)[C@@H]1NC(=O)[C@H](C(C)C)N(C)C(=O)CCCN(C)C(=O)C[C@@H](C(=O)N2CCCCC2)NC(=O)[C@H](CC(C)C)N(C)C(=O)[C@H](C)N(C)C(=O)[C@H](Cc2ccc(O)cc2)NC(=O)[C@H](CC(C)C)N(C)C(=O)[C@H](COC(C)(C)C)NC(=O)[C@H](Cc2ccccc2)N(C)C(=O)[C@H](CC(C)C)N(C)C1=O` [pd125] ([NMeGABA][NMeV]I[NMeL][NMeF]S(tBu)[NMeL]Y[NMeA][NMeL]D-Piperidide; lactam N-11): the Papp A→B at 180 min was 0.45 ×10⁻⁶ cm/s.

`CC(C)C[C@H]1C(=O)N[C@@H](C(C)C)C(=O)N(C)[C@@H](Cc2ccccc2)C(=O)N(C)[C@@H](Cc2ccccc2)C(=O)N[C@@H](COC(C)(C)C)C(=O)N(C)[C@@H](CC(C)C)C(=O)N[C@@H]([C@@H](C)O)C(=O)N(C)[C@@H](Cc2ccccc2)C(=O)N(C)[C@@H](CC(C)C)C(=O)N[C@H](C(=O)C2CCCCC2)CC(=O)N(C)CCCC(=O)N1C` [pd216] (cyclo([NMeF][NMeF]S(tBu)[NMeL]T[NMeF][NMeL][X16][NMeGABA][NMeL]V)): the Papp A→B at 180 min was found to be 1.2 ×10⁻⁶ cm/s.

`CC(C)C[C@H]1C(=O)N[C@@H](COC(C)(C)C)C(=O)N(C)[C@@H](Cc2ccccc2)C(=O)N(C)[C@@H](CC(C)C)C(=O)N[C@H](C(=O)N2CCCCC2)CC(=O)N2CCC[C@@H]2C(=O)N(C)[C@@H](Cc2cccc(Cl)c2)C(=O)N[C@@H](C(C)C)C(=O)N(C)[C@@H](C(C)C)C(=O)N[C@@H]([C@@H](C)O)C(=O)N(C)CC(=O)N1C` [pd155] ([dP][NMePhe(3-Cl)]V[NMeV]T[Sar][NMeL]S(tBu)[NMeF][NMeL]D-Piperidide; lactam N-11) gave a Papp A→B at 180 min of 2.1 ×10⁻⁶ cm/s.

`CC[C@H](C)[C@@H]1NC(=O)[C@H](CC(C)C)N(C)C(=O)[C@@H](C)NC(=O)C[C@@H](C(=O)N2CCCCC2)NC(=O)[C@H](C(C)C)N(C)C(=O)[C@H](CC(C)C)N(C)C(=O)[C@H](COC(C)(C)C)NC(=O)[C@H](CC(C)C)N(C)C(=O)CN(C)C(=O)[C@H](Cc2c[nH]c3ccccc23)NC(=O)[C@H](CC(C)C)N(C)C1=O` [pd108] ([dA][NMeL]I[NMeL]W[Sar][NMeL]S(tBu)[NMeL][NMeV]D-Piperidide; lactam N-11) registered a Papp A→B at 180 min of 0.87 ×10⁻⁶ cm/s.

The same series, now with this note: human; Papp, Caco-2 membrane permeability, improved method; read-out: Caco-2.
`CC(C)CCOC[C@H]1C(=O)N[C@@H]([C@@H](C)O)C(=O)N(C)CC(=O)N(C)[C@@H](CC(C)C)C(=O)N[C@H](C(=O)N2CCCCC2)CC(=O)N(C)[C@@H](C)C(=O)N[C@@H](CC(C)C)C(=O)N(C)[C@@H](CC(C)C)C(=O)N(C)[C@@H](Cc2ccccc2)C(=O)N[C@@H](CC(C)C)C(=O)N(C)[C@@H](Cc2ccccc2)C(=O)N1C` [pd308] ([NMeA]L[NMeL][NMeF]L[NMeF][NMeS](Isopentyl)T[Sar][NMeL]D-Piperidide; lactam N-11): the Papp A→B at 180 min was 2.1 ×10⁻⁶ cm/s.

Turning to `CCCCN1CC(=O)N(C)[C@@H](Cc2ccccc2)C(=O)N(C)[C@@H](CC(C)C)C(=O)N[C@@H](CC(C)C)C(=O)N(C)[C@@H](CC(C)C)C(=O)N[C@H](C(=O)N2CCCCC2)CC(=O)N(C)CC(=O)N(C)[C@@H](CC(C)C)C(=O)N[C@@H](C(C)C)C(=O)N(C)[C@@H](CC(C)C)C(=O)NC(CCc2noc(=O)[nH]2)C1=O` (stereo partly drawn) [pd488] ([Sar][NMeL]V[NMeL][X5][NBuGly][NMeF][NMeL]L[NMeL]D-Piperidide; lactam N-11), the Papp A→B at 180 min was found to be 1.6 ×10⁻⁶ cm/s.
